Experimental data reported in US6914045B2, “Glycopeptide antibiotics” (Wyeth Holdings Corporation, priority 2001, dated 2005).
Converted amounts (≈) assume the structure as drawn. Read-outs that look alike come from different tables or passages of the source. Numbered stars: 1 amine (or outer) side, 2 acyl side, 3 side chain; on linkers, the order of the positions; unused ones are H or OH. Square brackets hold non-standard residues; d marks the D form. Peptide text beside a SMILES is read from it. X5 = N=C1NCC(C(O)[C@@H](N[*:1])C(=O)[*:2])N1; X4 = N=C1NCC(C(O)[C@H](N[*:1])C(=O)[*:2])N1; Cha = N[C@@H](CC1CCCCC1)C(=O)O; dCha = N[C@H](CC1CCCCC1)C(=O)O

Experiments:
Experiment in all cases: in vitro antibacterial evaluation, MIC by broth dilution
Format in all cases: cell-based
Escherichia coli = conditions: 18 hours at 35° C.
Outline: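 MIC is the lowest antibiotic concentration (tested 64-0.06 μg/mL) preventing growth of a 5×10^5 CFU/mL inoculum. Determined by broth dilution in Mueller-Hinton II medium following NCCLS standard M7-A2.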

Streptococcus sp. = conditions: broth dilution, 18 hours at 35° C.
Outline: (§1)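 Step 1: dilute antibiotic across 64-0.06 μg/mL in Muller-Hinton II […]. Step 2: inoculate at 5×10^5 CFU/mL.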

Enterococcus sp. = conditions: broth dilution, 18 hours at 35° C.
Outline: as §1

Staphylococcus sp. = conditions: broth dilution, 18 hours at 35° C.
Outline: as §1

## N=C1NCC(C(O)[C@@H]2NC(=O)[C@@H](CC3CCCCC3)NC(=O)[C@H](CC3CCCCC3)NC(=O)CNC(=O)[C@H](CO)NC(=O)[C@@H](C(O)C3CNC(=N)N3)NC2=O)N1 (stereo partly drawn) [Example 58, Cyclo[3-cyclohexylalanyl-3-cyclohexylalanyl-3-(2-iminoimidazolidin-4-yl)seryl-3-(2-iminoimidazolidin-4-yl)-serylserylglycyl]] (cyclo([Cha][dCha][X4][X5]SG))
Escherichia coli; Escherichia coli (ATCC 25922), read-out: MIC Escherichia coli (ATCC 25922)
  MIC: 16 µg/mL (≈ 20.2 µM)
Escherichia coli; Escherichia coli, read-out: MIC Escherichia coli (GC 4559)
  MIC: 8 µg/mL (≈ 10.1 µM)
Escherichia coli; Escherichia coli, read-out: MIC Escherichia coli (GC 4560)
  MIC: 16 µg/mL (≈ 20.2 µM)
Streptococcus sp.; read-out: MIC Streptococcus agalactiae (GC 4564)
  MIC: 16 µg/mL (≈ 20.2 µM)
Streptococcus sp.; read-out: MIC Streptococcus pneumoniae (ATCC 6301)
  MIC: 8 µg/mL (≈ 10.1 µM)
Streptococcus sp.; read-out: MIC Streptococcus pneumoniae (GC 1894)
  MIC: 8 µg/mL (≈ 10.1 µM)
Streptococcus sp.; read-out: MIC Streptococcus pneumoniae (GC 4565)
  MIC: 16 µg/mL (≈ 20.2 µM)
Streptococcus sp.; read-out: MIC Streptococcus pyogenes (GC 4563)
  MIC: 8 µg/mL (≈ 10.1 µM)
Streptococcus sp.; strain ATCC 6301
  MIC Streptococcus pneumoniae (ATCC 6301): 8 µg/mL (≈ 10.1 µM)
Streptococcus sp.; strain GC 1894
  MIC Streptococcus pneumoniae (GC 1894): 8 µg/mL (≈ 10.1 µM)
Streptococcus sp.; strain GC 4563
  MIC Streptococcus pyogenes (GC 4563): 8 µg/mL (≈ 10.1 µM)
Streptococcus sp.; strain GC 4564
  MIC Streptococcus agalactiae (GC 4564): 16 µg/mL (≈ 20.2 µM)
Streptococcus sp.; strain GC 4565
  MIC Streptococcus pneumoniae (GC 4565): 16 µg/mL (≈ 20.2 µM)
Enterococcus sp.; Enterococcus avium (GC 4558)
  MIC Enterococcus avium (GC 4558): 32 µg/mL (≈ 40.5 µM)
Enterococcus sp.; Enterococcus faecalis (ATCC 29212)
  MIC Enterococcus faecalis (ATCC 29212): 64 µg/mL (≈ 80.9 µM)
Enterococcus sp.; Enterococcus faecalis (GC 4552)
  MIC Enterococcus faecalis (GC 4552): 64 µg/mL (≈ 80.9 µM)
Enterococcus sp.; Enterococcus faecalis (GC 4553)
  MIC Enterococcus faecalis (GC 4553): 32 µg/mL (≈ 40.5 µM)
Enterococcus sp.; Enterococcus faecalis (GC 4554)
  MIC Enterococcus faecalis (GC 4554): 64 µg/mL (≈ 80.9 µM)
Enterococcus sp.; Enterococcus faecalis (GC 6189)
  MIC Enterococcus faecalis (GC 6189): 64 µg/mL (≈ 80.9 µM)
Enterococcus sp.; Enterococcus faecium (GC 2243)
  MIC Enterococcus faecium (GC 2243): 32 µg/mL (≈ 40.5 µM)
Enterococcus sp.; Enterococcus faecium (GC 4556)
  MIC Enterococcus faecium (GC 4556): 64 µg/mL (≈ 80.9 µM)
Enterococcus sp.; Enterococcus faecium (GC 4557)
  MIC Enterococcus faecium (GC 4557): 8 µg/mL (≈ 10.1 µM)
Enterococcus sp.; read-out: MIC Enterococcus avium (GC 4558)
  MIC: 32 µg/mL (≈ 40.5 µM)
Enterococcus sp.; read-out: MIC Enterococcus faecalis (ATCC 29212)
  MIC: 64 µg/mL (≈ 80.9 µM)
Enterococcus sp.; read-out: MIC Enterococcus faecalis (GC 2242)
  MIC: 64 µg/mL (≈ 80.9 µM)
Enterococcus sp.; read-out: MIC Enterococcus faecalis (GC 2691)
  MIC: 64 µg/mL (≈ 80.9 µM)
Enterococcus sp.; read-out: MIC Enterococcus faecalis (GC 3059)
  MIC: 64 µg/mL (≈ 80.9 µM)
Enterococcus sp.; read-out: MIC Enterococcus faecalis (GC 4552)
  MIC: 64 µg/mL (≈ 80.9 µM)
Enterococcus sp.; read-out: MIC Enterococcus faecalis (GC 4553)
  MIC: 32 µg/mL (≈ 40.5 µM)
Enterococcus sp.; read-out: MIC Enterococcus faecalis (GC 4554)
  MIC: 64 µg/mL (≈ 80.9 µM)
Enterococcus sp.; read-out: MIC Enterococcus faecalis (GC 6189)
  MIC: 64 µg/mL (≈ 80.9 µM)
Enterococcus sp.; read-out: MIC Enterococcus faecium (GC 2243)
  MIC: 32 µg/mL (≈ 40.5 µM)
Enterococcus sp.; read-out: MIC Enterococcus faecium (GC 4556)
  MIC: 64 µg/mL (≈ 80.9 µM)
Enterococcus sp.; read-out: MIC Enterococcus faecium (GC 4557)
  MIC: 8 µg/mL (≈ 10.1 µM)
Enterococcus sp.; strain GC 2242
  MIC Enterococcus faecalis (GC 2242): 64 µg/mL (≈ 80.9 µM)
Enterococcus sp.; strain GC 2691
  MIC Enterococcus faecalis (GC 2691): 64 µg/mL (≈ 80.9 µM)
Enterococcus sp.; strain GC 3059
  MIC Enterococcus faecalis (GC 3059): 64 µg/mL (≈ 80.9 µM)
Staphylococcus sp.; Staphylococcus, strain GC 4543, read-out: MIC Staphylococcus aureus-SMITH (GC 4543)
  MIC: 4 µg/mL (≈ 5.06 µM)
Staphylococcus sp.; Staphylococcus, strain GC 4547, read-out: MIC Coagulase Negative Staphylococcus (GC 4547)
  MIC: 4 µg/mL (≈ 5.06 µM)
Staphylococcus sp.; Staphylococcus, strain GC 4548, read-out: MIC Coagulase Negative Staphylococcus (GC 4548)
  MIC: 4 µg/mL (≈ 5.06 µM)
Staphylococcus sp.; Staphylococcus, strain GC 4549, read-out: MIC Coagulase Negative Staphylococcus (GC 4549)
  MIC: 4 µg/mL (≈ 5.06 µM)
Staphylococcus sp.; Staphylococcus, strain GC 4551, read-out: MIC Coagulase Negative Staphylococcus (GC 4551)
  MIC: 8 µg/mL (≈ 10.1 µM)
Staphylococcus sp.; strain ATCC 29213, read-out: MIC Staphylococcus aureus (ATCC 29213)
  MIC: 16 µg/mL (≈ 20.2 µM)
Staphylococcus sp.; strain GC 1131, read-out: MIC Staphylococcus aureus (GC 1131)
  MIC: 8 µg/mL (≈ 10.1 µM)
Staphylococcus sp.; strain GC 3051, read-out: MIC Staphylococcus aureus (GC 3051)
  MIC: 16 µg/mL (≈ 20.2 µM)
Staphylococcus sp.; strain GC 3053, read-out: MIC Staphylococcus aureus (GC 3053)
  MIC: 32 µg/mL (≈ 40.5 µM)
Staphylococcus sp.; strain GC 4541, read-out: MIC Staphylococcus aureus (GC 4541)
  MIC: 16 µg/mL (≈ 20.2 µM)
Staphylococcus sp.; strain GC 4542, read-out: MIC Staphylococcus aureus (GC 4542)
  MIC: 16 µg/mL (≈ 20.2 µM)
Staphylococcus sp.; strain GC 4544, read-out: MIC Staphylococcus aureus (GC 4544)
  MIC: 16 µg/mL (≈ 20.2 µM)
Staphylococcus sp.; strain GC 4545, read-out: MIC Staphylococcus aureus (GC 4545)
  MIC: 8 µg/mL (≈ 10.1 µM)
Staphylococcus sp.; strain GC 4546, read-out: MIC Staphylococcus haemolyticus (GC 4546)
  MIC: 4 µg/mL (≈ 5.06 µM)
